The subject of series [1] is rat-organ homogenates. To be noted: cited from earlier work.
In series [2] the test system is rat-organ homogenates. The conditions noted are these: cited from earlier work. This is another data set of the same source.
The test system of the next series is rat erythrocyte (RBC). To be noted: cited from earlier work.
A further series has as its system Vero cells. As to the kind of experiment: Cytotoxicity (CD50) on Vero cells. It is filed as cell-based. To be noted: 48 hours of exposure. From the text: See Example II for tumor cell cytotoxicity of these compounds. […] NAB group 32 contains two compounds, Tolan-2 (also designated herein as KST-201) and Stil-2. Based on the NAB, they were classified as topological isomers. However, chemically they differ because Stil-2, a […], contained a double bonded linker, while Tolan-2 contained a triple bonded linker. The cytotoxicity of the two molecules on Vero cells differed markedly: Tolan-2 was less toxic than Stil-2.

Another series deals with HSV-1. Put plainly: HSV-1 replication in infected Vero cells (plaque assay). The class given is cell-based, Herpes Simplex Virus-Type 1. The conditions noted are these: at CD50, 75% and 50% of CD50; 24, 48, 72 h. The procedure: For this purpose HSV-1 replication at 24, 48 and 72 h was examined in the presence or absence of varying concentrations of the polyphenol.
The SI is the ratio of the CD50 divided by a selected inhibitory concentration (IC %).
Viral inhibition by Tolan-3 appeared to occur after viral entry into cells. […] Subsequently, the compound was removed and replaced with culture medium alone, and the incubated continued for 48 or 72 more hrs. In a second experiment, HSV-1 infected Vero cells were incubated with 350 μM Tolan-3 for 48 h. Thereafter, the Tolan-3 was removed and replaced by medium and the incubation continued for an additional 24 h. Viral titers were calculated by a standard plaque assay.

Another series concerns Mushroom tyrosinase. Put plainly: Inhibition of mushroom tyrosinase activity. The class given is biochemical. To be noted: concentration not given. Here is the method:
All chemical used for reagents were purchased from Sigma Chemical Company. KST201 at each tested concentration (1000, 250 and 100 μM) was dissolved in 10% ethanol from a master mixture of the drug prepared at 0.1M in 100% ethanol.
Mushroom tyrosinase (Sigma) was diluted in 50 mM phosphate buffer, pH 6.5 to yield a concentration of 16 U/μl. […] A master mix containing 0.5 mM L-DOPA [3,4-dihydroxy-1-phenylalanine], 10 mM Sodium L-tyrosine in 50 mM phosphate buffer, pH 6.5 was prepared. The KST-201 dilutions were preincubated with the enzyme for 20 minutes. The samples were pipetted into 24 well plates and the master mixture added quickly. The reaction was read using a kinetic format in which wells were read every 30 seconds over a course of 10 minutes at a wavelength of 475 nm using a Synergy HT Plate reader. A kinetic curve was generated for each sample compared to a total reaction with mushroom tyrosinase without a drug (total).

For a further series, the system named is prostate cancer. Put plainly: Prostate cancer patients (Example VIII A). It is filed as in vivo, human. To be noted: daily 10 μg to 5 mg/Kg; no significant differences between the four groups. Here is the method:
A group of 40 men aged 55-75 suffering from prostate cancer receive a daily dosage of between 10 μg and 5 mg/Kg body weight of KST-201, KST-213, KST-301 or KST-401 (10 patients per compound). Examination of the patients by clinical, radiographic and histopathological tests show significant shrinkage in tumors, and signs of cell death in 38% of the patients; there are no significant differences between the four treatment groups.

A further series deals with bladder cancer. Put plainly: Bladder cancer patients (Example VIII B). It is filed as in vivo, human. The conditions noted are these: intravenous 10 μg to 5 mg/kg over three months; for Patients with significant remission: no differences between compounds. Here is the method: A group of 20 men and 20 women aged 50-75 with bladder cancer are treated by intravenous injection of between 10 μg and 5 mg/kg of KST-201, KST-213, KST-301 or KST-401. Each compound is given to a group of 5 men and 5 women) over a period of three months. Clinical, radiographic and histopathological tests show significant remission in 35% of patients, accompanied by signs of cell death in 45%. There are no significant differences between the results with the four compounds.

The next series has as its system breast cancer. Put plainly: Breast cancer prevention, skin patch (Example VIII C). It is filed as in vivo, human. The conditions noted are these: transdermal patch 10 mg to 100 mg daily, one-year study. Here is the method:
This study investigates whether KST-201, KST-213, KST-301 and KST-401 administered transdermally each day through a skin patch aid in preventing breast cancer or metastatic cancer following cancer therapy. Patches are prepared with a lipophilic carrier which is readily absorbed through the skin (glycerol cold cream containing glycerin and peanut oil). The HT compound is mixed with the lipophilic cream such that each patch comprises 10 mg to 100 mg of active compound. The patch is applied to the skin each day, and rapid absorption occurs. After two hours, the patch is removed.

A further series has as its system ovarian cancer. As to the kind of experiment: Ovarian cancer patients (Example VIII D). It is filed as in vivo, human. The conditions noted are these: daily gelatin capsule 200 mg. The procedure:
A study is carried out in a group of 40 women with ovarian cancer of various grades to determine the effect of treatment with compounds of KST-201, KST-213, KST-301 and KST-401. The administration protocol involves daily administration of a gelatin capsule containing 200 mg of active compound.

In the next series the test system is colon cancer. Put plainly: Colon cancer patients (Example VIII E). To be noted: for Dissemination of the tumors: daily bolus injections (intravenous or intramuscular) of 2 g; for Cancer marker carcinoembryonic antigen (CEA) / Progression of the tumor: intravenous infusion 2 g daily for three weeks. The class given is in vivo, human. Here is the method:
Eight patients suffering from advanced colon cancer are treated daily for three weeks with an intravenous infusion of 2 g of the compounds KST-201, KST-213, KST-301 or KST-401 dissolved in saline. Two patients are assigned to each compound. The compounds are dissolved in sterile saline. […] Progression of the tumor is also arrested over the treatment period.
Another eight patients with terminal colon cancer are treated by daily bolus injections (intravenous or intramuscular) of 2 g of KST-201, KST-213, KST-301 or KST-401.

The text below walks through data of patent US8716355B2, “Hydroxylated tolans and related compounds in the treatment of a cancer” (Kent State University, priority 2007, dated 2014).

A value given as a limit tells only on which side of the number the result lay.

For `Oc1ccc(/C=C/c2ccccc2)cc1` [trans-4-Hydroxystilbene], in the series with rat-organ homogenates [1], the “Inhibition (%) of Fe2+ − VitC induced level of MDA at 15 μM, In rat brain” value (shortened to “Inhibition (%) … at 15 μM, In rat brain”) is reported as 43.36%; the “Inhibition (%) of Fe2+ − VitC induced level of MDA at 15 μM, In rat kidney” value (“Inhibition (%) … at 15 μM, In rat kidney” below) is 29.23%; the “Inhibition (%) of Fe2+ − VitC induced level of MDA at 15 μM, In rat liver” value (shortened to “Inhibition (%) … at 15 μM, In rat liver”) is recorded as 32.85%. In addition, in the series on rat-organ homogenates [2], the “Inhibition (%) of autooxidation MDA level at 7.5 μM, In rat brain” value (“Inhibition (%) … at 7.5 μM, In rat brain” below) was 6.64%; the “Inhibition (%) of autooxidation MDA level at 7.5 μM, In rat kidney” value (from here on “Inhibition (%) … at 7.5 μM, In rat kidney”) is recorded as 19.88%; the “Inhibition (%) of autooxidation MDA level at 7.5 μM, In rat liver” value (“Inhibition (%) … at 7.5 μM, In rat liver” below) is −2.31%. In addition, the “Inhibition (%) of RBC hemolysis induced by H2O2 at 4 μM” value (from here on “Inhibition (%) … at 4 μM”) in the series with rat erythrocyte (RBC) was -5.14%.

Regarding `Oc1cc(O)cc(C#Cc2cc(O)cc(O)c2)c1` [KST-401, 3,3′,5,5′-tetrahydroxytolan], in the series on Vero cells, the CD50 amounted to 103 µM and the “Log CD50” value was found to be 2.01. Besides, in the series with HSV-1, the “Effect on HSV-1 viral replication in Vero cells (in words)” value (shortened to “Effect on HSV-1 viral replication”) is listed as “substantial viral inhibition”. Further, the “% inhibition of mushroom tyrosinase activity” value with Mushroom tyrosinase is listed as 22.7±6.5%. Further, the “Patients with significant shrinkage in tumors, and signs of cell death” value in the series on prostate cancer was 38%. Besides, in the series on bladder cancer, the “Patients with signs of cell death” value is recorded as 45% and the “Patients with significant remission” value is recorded as 35%. Besides, in the series with breast cancer, the “Breast cancer or metastatic cancer in high-risk group” value is reported as “does not show any evidence of breast cancer or other metastatic cancer”. In addition, in the series with ovarian cancer, the “Rate of production of ovarian cancer markers (Muc-1, Sp17)” value is given as “significant decrease” and the “Tumor growth during study period” value is “Tumors regress or show no further growth”. In the series with colon cancer, the “Dissemination of the tumors” value is recorded as “dissemination of the tumors is diminished”, the “Cancer marker carcinoembryonic antigen (CEA)” value is on record as “significant reduction” and the “Progression of the tumor” value is “arrested”.

Regarding `Oc1ccc(/C=C/c2ccccc2)cc1O` [trans-3,4-Dihydroxystilbene], in the series on rat-organ homogenates [1], the “Inhibition (%) … at 15 μM, In rat brain” value is on record as 96.68%; the “Inhibition (%) … at 15 μM, In rat kidney” value is 89.23%; the “Inhibition (%) … at 15 μM, In rat liver” value is listed as 99.27%. Also, the “Inhibition (%) … at 4 μM” value in the series on rat erythrocyte (RBC) was 97.58%.

Take `Oc1ccc(/C=C/c2ccc(O)cc2)cc1` [trans-4,4′-Dihydroxystilbene]: in the series on rat-organ homogenates [1], the “Inhibition (%) … at 15 μM, In rat brain” value is 90.66%; the “Inhibition (%) … at 15 μM, In rat kidney” value is listed as 85.23%; the “Inhibition (%) … at 15 μM, In rat liver” value is on record as 68.37%. In the series on rat-organ homogenates [2], the “Inhibition (%) … at 7.5 μM, In rat brain” value is given as 85.31%; the “Inhibition (%) … at 7.5 μM, In rat kidney” value was 62.11%; the “Inhibition (%) … at 7.5 μM, In rat liver” value is listed as 89.23%. Also, the “Inhibition (%) … at 4 μM” value in the series with rat erythrocyte (RBC) is recorded as 67.17%.

Take `Oc1ccc(/C=C/c2ccccc2)c(O)c1` [trans-2,4-Dihydroxystilbene]: in the series with rat-organ homogenates [1], the “Inhibition (%) … at 15 μM, In rat brain” value is given as 55.19%; the “Inhibition (%) … at 15 μM, In rat kidney” value is listed as 39.08%; the “Inhibition (%) … at 15 μM, In rat liver” value was 42.58%. Besides, in the series with rat-organ homogenates [2], the “Inhibition (%) … at 7.5 μM, In rat brain” value is 30.07%; the “Inhibition (%) … at 7.5 μM, In rat kidney” value was 32.27%; the “Inhibition (%) … at 7.5 μM, In rat liver” value is on record as 42.31%. In addition, in the series on rat erythrocyte (RBC), the “Inhibition (%) … at 4 μM” value is given as 43.72%.

`Oc1ccc(C#Cc2ccc(C(F)(F)F)cc2)cc1` [KST-213, 4-hydroxy-4′-trifluoromethyltolan]: in the series on Vero cells, the CD50 came to 48.2 µM and the “Log CD50” value is listed as 1.68. The “Effect on HSV-1 viral replication” value with HSV-1 was “substantially inhibited”. For the same compound, the “Patients with significant shrinkage in tumors, and signs of cell death” value in the series with prostate cancer worked out at 38%. Besides, in the series on bladder cancer, the “Patients with signs of cell death” value worked out at 45% and the “Patients with significant remission” value is recorded as 35%. Moreover, the “Breast cancer or metastatic cancer in high-risk group” value in the series with breast cancer is “does not show any evidence of breast cancer or other metastatic cancer”. Moreover, in the series on ovarian cancer, the “Rate of production of ovarian cancer markers (Muc-1, Sp17)” value is given as “significant decrease” and the “Tumor growth during study period” value is “Tumors regress or show no further growth”. Also, in the series on colon cancer, the “Dissemination of the tumors” value was “dissemination of the tumors is diminished”, the “Cancer marker carcinoembryonic antigen (CEA)” value is “significant reduction” and the “Progression of the tumor” value is “arrested”.

With `Oc1cc(O)cc(/C=C/c2cc(O)cc(O)c2)c1` [Stil-4, tetrahydroxystilbene], in the series on Vero cells, the CD50 was more than 200 µM and the “Log CD50” value amounted to 2.30.

On to `Oc1cc(O)cc(/C=C/c2ccccc2)c1` [trans-3,5-Dihydroxystilbene], for which, in the series with rat-organ homogenates [1], the “Inhibition (%) … at 15 μM, In rat brain” value is on record as 12.24%; the “Inhibition (%) … at 15 μM, In rat kidney” value is recorded as 0.62%; the “Inhibition (%) … at 15 μM, In rat liver” value is on record as 24.82%. In the series on rat-organ homogenates [2], the “Inhibition (%) … at 7.5 μM, In rat brain” value is recorded as −5.24%; the “Inhibition (%) … at 7.5 μM, In rat kidney” value is on record as 14.91%; the “Inhibition (%) … at 7.5 μM, In rat liver” value is −5.38%. Moreover, in the series with rat erythrocyte (RBC), the “Inhibition (%) … at 4 μM” value is recorded as 19.97%.

With `Oc1ccc(/C=C/c2ccc(O)cc2O)cc1` [trans-2,4,4′-Trihydroxystilbene], in the series with rat-organ homogenates [1], the “Inhibition (%) … at 15 μM, In rat brain” value is 94.40%; the “Inhibition (%) … at 15 μM, In rat kidney” value is 87.69%; the “Inhibition (%) … at 15 μM, In rat liver” value is 92.46%. Moreover, in the series on rat-organ homogenates [2], the “Inhibition (%) … at 7.5 μM, In rat brain” value is recorded as 90.91%; the “Inhibition (%) … at 7.5 μM, In rat kidney” value was 66.46%; the “Inhibition (%) … at 7.5 μM, In rat liver” value was 93.85%. In the series with rat erythrocyte (RBC), the “Inhibition (%) … at 4 μM” value is given as 81.85%.

As to `Oc1ccc(/C=C/c2ccc(O)cc2)cc1` [Stil-2], in the series on Vero cells, the CD50 is 53.3 µM and the “Log CD50” value was 1.73. Moreover, the “Effect on HSV-1 viral replication” value in the series with HSV-1 is recorded as “no substantial reduction in viral replication”.

With `Oc1ccc(/C=C/c2ccccc2)cc1` [Stil-1], in the series with Vero cells, the CD50 was determined as 131 µM and the “Log CD50” value stood at 2.12.
